# Measurements reported in patent US20230339851A1, “CXCR6 SULFONAMIDE COMPOUNDS” (CHEMOCENTRYX, INC., priority 2022, published 2023).
# Molecular target: T1, human CXCR6 (Homo sapiens, UniProt O00574)
# T1 construct: expressed in transfected cells
# Assay: Radioligand Binding Assay (125I-CXCL16 displacement)
# Conditions: L1.2 cells stably transfected with human CXCR6 cDNA, 0.1 nM 125I-CXCL16, 4° C., three-hour incubation; read-out: Potency (IC50)
# In short: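 Displacement of 0.1 nM 125I-CXCL16 from human CXCR6 stably expressed in L1.2 cells was measured after a 3 h, 4 °C incubation in HBSS with 0.1% BSA. Filter-bound cpm were counted, and IC50 values came from a 3-parameter nonlinear fit.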
# T1 sequence (O00574 whole entry): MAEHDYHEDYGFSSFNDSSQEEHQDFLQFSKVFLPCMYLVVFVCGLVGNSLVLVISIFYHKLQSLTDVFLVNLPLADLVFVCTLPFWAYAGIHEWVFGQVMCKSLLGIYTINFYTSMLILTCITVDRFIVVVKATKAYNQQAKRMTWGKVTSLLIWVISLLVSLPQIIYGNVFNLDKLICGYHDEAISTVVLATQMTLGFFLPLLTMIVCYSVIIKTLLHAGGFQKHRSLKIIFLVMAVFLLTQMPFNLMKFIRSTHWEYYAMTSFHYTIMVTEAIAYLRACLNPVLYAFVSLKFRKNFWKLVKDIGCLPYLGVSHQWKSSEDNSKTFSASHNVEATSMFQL
row,IC50 [nM],SMILES
1,200 to 750,CCOc1cc(NC(=O)[C@@H](CO)C2CC2)ccc1S(=O)(=O)Nc1cccc(C(C)(C)C)c1 [Example 1.516]
2,750 to 2000,COc1cc(NC(=O)C2=CCCCC2)ccc1S(=O)(=O)Nc1cccc(OC(F)(F)F)c1 [Example 1.090]
3,≤ 200,CCOc1cc(NC(=O)[C@@H](O)C(C)C)ccc1S(=O)(=O)Nc1cccc(OC(F)(F)F)c1 [Example 1.105]
4,200 to 750,CCOc1cc(NC(=O)C2CCOC2)ccc1S(=O)(=O)Nc1cccc(OC(F)(F)F)c1 (centres unmarked) [Example 1.058]
5,2000 to 20000,C[C@@H]1COCC[C@@H]1C(=O)Nc1ccc(S(=O)(=O)Nc2cccc(OC(F)(F)F)c2)c(C#N)c1 (racemic) [Example 1.341]
6,≤ 200,CCOc1cc(NC(=O)[C@@H](CO)c2ccccc2)ccc1S(=O)(=O)Nc1cccc(C(F)(F)F)c1 [Example 1.437]
7,200 to 750,COc1cc(NC(=O)CC2CCCC2)ccc1S(=O)(=O)Nc1cccc(C(F)(F)F)c1 [Example 1.069]
8,200 to 750,CCOc1cc(NC(=O)[C@@H](CO)c2ccccc2)ccc1S(=O)(=O)Nc1ccc(Cl)c(OC)c1 [Example 1.550]
9,2000 to 20000,CCOc1cc(NC(=O)[C@@H](CO)c2ccccc2)ccc1S(=O)(=O)Nc1cccc(Cl)c1C [Example 1.221]
10,200 to 750,Cc1cc(NC(=O)C(CO)C(C)C)ccc1S(=O)(=O)Nc1cccc(OC(F)(F)F)c1 (centres unmarked) [Example 1.400]
11,≤ 200,CC(C)[C@H](CO)C(=O)Nc1ccc(S(=O)(=O)Nc2cccc(OC(F)(F)F)c2)c(C#N)c1 [Example 1.482]
12,≤ 200,CCOc1cc(NC(=O)[C@@H](O)C(C)C)ccc1S(=O)(=O)Nc1ccc(C2CC2)c(OC(F)(F)F)c1 [Example 1.521]
13,≤ 200,CCOc1cc(NC(=O)C(CO)C2CCC2)ccc1S(=O)(=O)Nc1cccc(OC(F)(F)F)c1 (centres unmarked) [Example 1.376]
14,200 to 750,COc1cc(NC(=O)[C@H]2CCCC[C@H]2O)ccc1S(=O)(=O)Nc1cccc(OC(F)(F)F)c1 [Example 1.111]
15,≤ 200,CCOc1cc(NC(=O)[C@@H](CO)C(C)C)ccc1S(=O)(=O)Nc1ccc(C)c(C(F)(F)F)c1 [Example 1.102]
16,750 to 2000,CCOc1cc(NC(=O)C2CCCC(O)C2)ccc1S(=O)(=O)Nc1cccc(OC(F)(F)F)c1 (centres unmarked) [Example 1.545]
17,2000 to 20000,CCOc1cc(NC(=O)[C@@H]2C[C@@H](O)[C@@H](O)C2)ccc1S(=O)(=O)Nc1cccc(OC(F)(F)F)c1 [Example 1.280]
18,≤ 200,CCOc1cc(NC(=O)C(CO)C(C)C)ccc1S(=O)(=O)Nc1cccc(OC(F)(F)F)c1 (centres unmarked) [Example 1.563]
19,200 to 750,COc1cc(NC(=O)c2ccnn2C)ccc1S(=O)(=O)Nc1cc(Cl)cc(OC(F)(F)F)c1 [Example 1.336]
20,≤ 200,CCOc1cc(NC(=O)[C@H]2CCOC[C@@H]2CC)ccc1S(=O)(=O)Nc1cccc(OC(F)(F)F)c1 (racemic) [Example 1.065]
21,≤ 200,CCOc1cc(NC(=O)[C@@H](O)C(C)C)ccc1S(=O)(=O)Nc1ccc(F)c(CC)c1 [Example 1.431]
22,≤ 200,CCOc1cc(NC(=O)[C@@H](N)c2ccccc2)ccc1S(=O)(=O)Nc1cccc(OC(F)(F)F)c1 [Example 1.086]
23,200 to 750,C=CC(=O)Nc1ccc(S(=O)(=O)Nc2cccc(OC(F)(F)F)c2)c(OCC)c1 [Example 1.583]
24,750 to 2000,COc1cc(NC(=O)C2CC3C=CC2O3)ccc1S(=O)(=O)Nc1cccc(OC(F)(F)F)c1 (centres unmarked) [Example 1.370]
25,≤ 200,CCOc1cc(NC(=O)[C@@H](CO)C(C)C)ccc1S(=O)(=O)Nc1cccc(C(C)C)c1 [Example 1.155]
26,200 to 750,CCOc1cc(NC(=O)C2CCC(=O)C2)ccc1S(=O)(=O)Nc1cccc(OC(F)(F)F)c1 (centres unmarked) [Example 1.152]
27,200 to 750,CCOc1cc(NC(=O)[C@@H](CO)C(C)C)ccc1S(=O)(=O)Nc1ccc(Cl)cc1 [Example 1.044]
28,200 to 750,CCOc1cc(NC(=O)[C@@H]2CCOCC[C@@H]2O)ccc1S(=O)(=O)Nc1cccc(OC(F)(F)F)c1 [Example 1.513]
29,≤ 200,CCOc1cc(NC(=O)c2ccncc2)ccc1S(=O)(=O)Nc1cccc(OC(F)(F)F)c1 [Example 1.366]
